Measured values from patent publication US9670204B2, “Compounds and pharmaceutical compositions thereof for the treatment of inflammatory disorders” (Galapagos NV, priority 2013, dated 2017).

Legend:
[1] = target: T1, hENPP2 (UniProtKB/SwissProt Q13822) (Homo sapiens (Human), UniProt Q13822); assay: hENPP2 biochemical assay, LPC as substrate; conditions: LPC (palmitoyl 16:0) as substrate
Outline: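 Human ENPP2 in 50 mM Tris-HCl pH 8.5, 500 mM NaCl, 5 mM KCl, 10 mM CaCl2, 0.1% fatty-acid-free BSA, reacted 30 min at 37 °C with LPC 16:0 (150 µM solution added 1:1). Released choline measured via choline oxidase/peroxidase/TOOS/4-aminoantipyrine quinoneimine dye at 555 nm; IC50 reported.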

[2] = target: T1, hENPP2; assay: fluorescent hENPP2 biochemical assay, FS-3 as substrate; conditions: read-out: FS3-IC50
Outline: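 hENPP2 in 50 mM Tris-HCl pH 8.0, 250 mM NaCl, 5 mM KCl, 1 mM MgCl2, 1 mM CaCl2, 0.1% fatty-acid-free BSA, preincubated with compound 30 min at room temperature. The 0.75 μM FS-3 solution was added and the mixture incubated 30 min at 30° C. Fluorescence (ex 485/em 520 nm) gives IC50.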

[3] = test system: LPA 18:2 in rat plasma; assay: Rat whole blood (plasma) LPA assay; type: biochemical; conditions: 2 h at 37 C, LPA 18:2 by LC-MS/MS
Outline: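 Heparinised rat plasma spiked with compound (1% DMSO final), incubated 2 h at 37 °C, 5% CO2 with shaking; controls kept at −20 °C. After methanol precipitation with LPA 17:0 internal standard, LPA 18:2 measured by LC-MS/MS (C18, isocratic), relative quantities from peak area without calibration.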

Question: Which results are given for `CCc1nc2ccc(C3CCN(CC(=O)N4CC[C@@H](O)C4)CC3)cn2c1N(C)c1nc(-c2ccc(F)cc2)cs1` [Compound 111, (R)-2-(4-(2-ethyl-3-((4-(4-fluorophenyl)thiazol-2-yl)(methyl)amino)imidazo[1,2-a]pyridin-6-yl)piperidin-1-yl)-1-(3-hydroxypyrrolidin-1-yl)ethanone]?
Answer: IC50 [1]: 100 to 500 nM; IC50 [2]: 0.01 to 100 nM; IC50 [3]: 500 to 1000 nM

Question: `CCc1nc2ccc(C3CCN(CC(=O)N4CC[C@H](O)C4)CC3)cn2c1N(C)c1nc(-c2ccc(F)cc2)cs1` [Compound 112, (S)-2-(4-(2-ethyl-3-((4-(4-fluorophenyl)thiazol-2-yl)(methyl)amino)imidazo[1,2-a]pyridin-6-yl)piperidin-1-yl)-1-(3-hydroxypyrrolidin-1-yl)ethanone] was tested. Which IC50 [1] did it give?
Answer: Its IC50 is 100 to 500 nM.

Question: And the IC50 [2]?
Answer: Its IC50 is 0.01 to 100 nM.

Question: What about the IC50 [3] of the same molecule?
Answer: Its IC50 is 100 to 500 nM.

Question: With `CCc1nc2ccc(C3CCN(CC(=O)N4CC(CO)C4)CC3)cn2c1N(C)c1nc(-c2ccc(F)cc2)cs1` [Compound 113, 2-(4-(2-ethyl-3-((4-(4-fluorophenyl)thiazol-2-yl)(methyl)amino)imidazo[1,2-a]pyridin-6-yl)piperidin-1-yl)-1-(3-(hydroxymethyl)azetidin-1-yl) ethanone] as the molecule, how does the IC50 [1] read?
Answer: Its IC50 is 100 to 500 nM.

Question: What about the IC50 [2] of the same molecule?
Answer: The IC50 was 0.01 to 100 nM.

Question: What about the IC50 [3] of the same molecule?
Answer: The IC50 was 100 to 500 nM.

Question: `CCc1nc2ccc(C3CCN(CC(=O)N(C)C)CC3)cn2c1N(C)c1nc(-c2ccc(F)cc2)cs1` [Compound 114, 2-(4-(2-ethyl-3-((4-(4-fluorophenyl)thiazol-2-yl)(methyl)amino)imidazo[1,2-a]pyridin-6-yl)piperidin-1-yl)-N,N-dimethylacetamide] was tested. Which IC50 [1] did it give?
Answer: The IC50 was 100 to 500 nM.

Question: And the IC50 [2]?
Answer: Its IC50 is 0.01 to 100 nM.

Question: What about the IC50 [3] of the same molecule?
Answer: Its IC50 is 500 to 1000 nM.

Question: With `CCc1nc2ccc(C3CCN(CC(=O)N4CCCC4)CC3)cn2c1N(C)c1nc(-c2ccc(F)cc2)cs1` [Compound 115, 2-(4-(2-ethyl-3-((4-(4-fluorophenyl)thiazol-2-yl)(methyl)amino)imidazo[1,2-a]pyridin-6-yl)piperidin-1-yl)-1-(pyrrolidin-1-yl)ethanone] as the molecule, how does the IC50 [1] read?
Answer: Its IC50 is 0.01 to 100 nM.

Question: What about the IC50 [2] of the same molecule?
Answer: Its IC50 is 0.01 to 100 nM.

Question: And the IC50 [3]?
Answer: The IC50 was 0.01 to 100 nM.

Question: How did the IC50 [1] turn out when `CCc1nc2ccc(C3CCN(S(C)(=O)=O)CC3)cn2c1N(C)c1nc(-c2ccc(F)cc2)c(C#N)s1` [Compound 136, 2-((2-ethyl-6-(1-(methylsulfonyl)piperidin-4-yl)imidazo [1,2-a]pyridin-3-yl)(methyl)amino)-4-(4-fluorophenyl) thiazole-5-carbonitrile] was run?
Answer: Its IC50 is 100 to 500 nM.

Question: And the IC50 [2]?
Answer: Its IC50 is 0.01 to 100 nM.

Question: What about the IC50 [3] of the same molecule?
Answer: Its IC50 is 0.01 to 100 nM.

Question: How did the IC50 [1] turn out when `CCc1nc2ccc(N3CCN(CC(=O)N4CC(O)C4)CC3)cn2c1N(C)c1nc(-c2ccc(F)cc2)c(C#N)s1` [Compound 138, 2-((2-ethyl-6-(4-(2-(3-hydroxyazetidin-1-yl)-2-oxoethyl)piperazin-1-yl)imidazo[1,2-a]pyridin-3-yl)(methyl)amino)-4-(4-fluorophenyl)thiazole-5-carbonitrile] was run?
Answer: Its IC50 is 0.01 to 100 nM.

Question: And the IC50 [2]?
Answer: Its IC50 is 0.01 to 100 nM.

Question: And the IC50 [3]?
Answer: The IC50 was 0.01 to 100 nM.

Question: With `CCc1nc2ccc(C3CCN(CC(=O)N4CC(O)C4)CC3)cn2c1N(C)c1nc(-c2ccc(F)cc2)c(C#N)s1` [Compound 141, 2-((2-ethyl-6-(1-(2-(3-hydroxyazetidin-1-yl)-2-oxoethyl)piperidin-4-yl)imidazo[1,2-a]pyridin-3-yl)(methyl)amino)-4-(4-fluorophenyl)thiazole-5-carbonitrile] as the molecule, how does the IC50 [1] read?
Answer: The IC50 was 0.01 to 100 nM.

Question: And the IC50 [2]?
Answer: The IC50 was 0.01 to 100 nM.

Question: What about the IC50 [3] of the same molecule?
Answer: The IC50 was 0.01 to 100 nM.

Question: `CCc1nc2ccc(C3CCN(CC(=O)N4CC[C@H](O)C4)CC3)cn2c1N(C)c1nc(-c2ccc(F)cc2)c(C#N)s1` [Compound 143, (S)-2-((2-ethyl-6-(1-(2-(3-hydroxypyrrolidin-1-yl)-2-oxoethyl)piperidin-4-yl)imidazo[1,2-a]pyridin-3-yl)(methyl)amino)-4-(4-fluorophenyl)thiazole-5-carbonitrile] was tested. Which IC50 [1] did it give?
Answer: Its IC50 is 0.01 to 100 nM.

Question: What about the IC50 [2] of the same molecule?
Answer: Its IC50 is 0.01 to 100 nM.

Question: And the IC50 [3]?
Answer: Its IC50 is 0.01 to 100 nM.
